Results reported in patent US12319655B2, “RAF kinase inhibitors and methods of use thereof” (Deciphera Pharmaceuticals, LLC, priority 2021, dated 2025).

What was measured:
[1] = molecular target: A-Raf kinase (SEQ. ID No: 1) (Homo sapiens (Human), UniProt P10398, Y301D/Y302D); experiment: Biochemical Assay for A-Raf (1); details: Table J, assay version (1); read-out: ARAF (1) IC50
How it was run: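 IC50 values were derived by four-parameter sigmoidal fitting of percent inhibition, calculated from reaction rates over the 4–5 h window. Absorbance at 340 nm was tracked for 6 h at 30 °C via coupled PK/LDH NADH depletion. Conditions: 1 mM ATP, 30.1 nM MEK substrate, 5.55 nM A-Raf (Y301D/Y302D), Tris pH 7.5, 1% DMSO.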

[2] = molecular target: B-Raf kinase (SEQ. ID NO: 2) (Homo sapiens (Human), UniProt P15056); experiment: Biochemical Assay for B-Raf (1); details: Table J, assay version (1); read-out: BRAF (1) IC50
B-Raf kinase (SEQ. ID NO: 2), sequence (P15056 416-766): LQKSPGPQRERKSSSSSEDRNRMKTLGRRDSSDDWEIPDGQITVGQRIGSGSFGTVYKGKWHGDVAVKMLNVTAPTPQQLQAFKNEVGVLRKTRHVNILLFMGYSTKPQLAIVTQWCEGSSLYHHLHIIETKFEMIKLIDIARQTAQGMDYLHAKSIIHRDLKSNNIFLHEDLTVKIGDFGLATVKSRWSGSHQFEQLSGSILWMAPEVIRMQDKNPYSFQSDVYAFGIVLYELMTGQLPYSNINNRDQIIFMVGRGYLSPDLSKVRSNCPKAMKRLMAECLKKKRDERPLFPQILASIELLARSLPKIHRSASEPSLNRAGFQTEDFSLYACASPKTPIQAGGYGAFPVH
How it was run: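 IC50 derived by four-parameter sigmoidal fit of percent inhibition, normalised to uninhibited and reference-inhibitor controls, using reaction rates over 4–5 h. Coupled spectrophotometric readout (NADH loss at 340 nm, 6 h, 30° C.); 1 mM ATP, 30.1 nM MEK, 0.13 nM B-Raf, pH 7.5 Tris buffer, 1% DMSO.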

[3] = test system: Miapaca-2 cells; experiment: MiaPaca-2 Cell Proliferation Assay (1); assay type: cell-based; details: Homo sapiens, MIA PaCa-2, single agent, read-out: MiaPaca2 (1) IC50
How it was run: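 Resazurin was added after compound exposure and incubated 5-6 h, then fluorescence read at 540 nm excitation and 600 nm emission to give IC50.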

[4] = test system: WM3928 cells; experiment: WM3928 Cell Proliferation Assay (1); assay type: cell-based
How it was run: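 IC50 was derived from resazurin fluorescence (ex 540, em 600 nm) after a 6–7 h dye incubation. Before that, cells had 67–72 h of compound exposure at 37 °C, 5% CO2.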

A-Raf kinase (SEQ. ID No: 1), sequence (P10398 other isoform, or with tags, fused parts or gaps Y301D (already in the parent)/Y302D (already in the parent)): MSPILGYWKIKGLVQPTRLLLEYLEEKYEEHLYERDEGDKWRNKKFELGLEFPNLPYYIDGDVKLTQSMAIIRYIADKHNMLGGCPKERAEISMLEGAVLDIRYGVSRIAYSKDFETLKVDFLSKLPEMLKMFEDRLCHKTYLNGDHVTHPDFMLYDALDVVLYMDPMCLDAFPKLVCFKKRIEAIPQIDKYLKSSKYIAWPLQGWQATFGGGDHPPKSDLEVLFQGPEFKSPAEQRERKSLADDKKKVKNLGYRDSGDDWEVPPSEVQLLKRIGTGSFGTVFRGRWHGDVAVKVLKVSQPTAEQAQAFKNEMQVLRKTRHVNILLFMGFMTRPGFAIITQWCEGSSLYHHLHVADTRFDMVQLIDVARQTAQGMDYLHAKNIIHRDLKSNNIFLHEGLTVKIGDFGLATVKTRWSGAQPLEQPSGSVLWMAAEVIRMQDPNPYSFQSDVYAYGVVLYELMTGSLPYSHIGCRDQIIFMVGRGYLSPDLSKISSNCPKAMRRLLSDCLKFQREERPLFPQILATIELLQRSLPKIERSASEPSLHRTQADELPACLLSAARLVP

SMILES | IC50 [1] [µM] | IC50 [2] [µM] | IC50 [3] [µM] | IC50 [4] [µM]
CC(=O)Nc1cc(-c2cc(-c3cc(NC(=O)c4ccnc(C(F)(F)F)c4)ccc3C)cn(C)c2=O)ccn1 [Example 21, N-(3-(2′-acetamido-1-methyl-2-oxo-1,2-dihydro-[3,4′-bipyridin]-5-yl)-4-methylphenyl)-2-(trifluoromethyl)isonicotinamide] | 1 to 10 | ≤ 0.1 | 1 to 10 | –
CC(=O)Nc1cc(-c2cc(-c3cc(C(=O)Nc4ccnc(C(F)(F)F)c4)ccc3C)ccn2)ccn1 [Example 26] | 1 to 10 | ≤ 0.1 | 1 to 10 | –
CC(=O)Nc1cc(-c2cccc(-c3cc(NC(=O)c4ccnc(C(F)(F)F)c4)ccc3C)c2)ccn1 [Example 28] | 0.5 to 1 | ≤ 0.1 | 1 to 10 | –
CNC(=O)c1cc(-c2cc(-c3cc(C(=O)Nc4ccnc(C(F)(F)F)c4)ccc3C)ccn2)ccn1 [Example 31] | 1 to 10 | 0.1 to 0.5 | 1 to 10 | –
Cc1ncc(NC(=O)c2cn(C(C)C)nn2)cc1-c1nccc(-c2ccnc(NC(=O)C3CC3)c2)n1 [Example 285] | 1 to 10 | ≤ 0.1 | – | 1 to 10
Cc1ncc(NC(=O)c2cnnc(C3CC3)c2)cc1-c1nccc(-c2ccnc(NC(=O)C3CC3)c2)n1 [Example 294] | 1 to 10 | ≤ 0.1 | – | –
COC(=O)Nc1cc(-c2cc(-c3cc(NC(=O)c4ccnc(C(C)(C)F)c4)c(F)cc3C)ccn2)ccn1 [Example 302] | 1 to 10 | ≤ 0.1 | – | ≤ 0.1
COC(=O)Nc1cc(-c2nccc(-c3cc(NC(=O)c4ccnc(C(C)(C)C#N)c4)c(F)cc3C)n2)ccn1 [Example 303] | 1 to 10 | ≤ 0.1 | – | ≤ 0.1
COC(=O)Nc1cc(-c2cnnc(-c3cc(NC(=O)c4ccnc(C(C)(C)C#N)c4)cnc3C)c2)ccn1 [Example 306] | 1 to 10 | 0.1 to 0.5 | 1 to 10 | –
CNC(=O)c1cc(-c2cnnc(-c3cc(NC(=O)c4ccnc(C(C)(C)F)c4)cnc3C)c2)ccn1 [Example 309] | 1 to 10 | 1 to 10 | 1 to 10 | –
Cc1ncc(NC(=O)c2ccnc(C(C)(C)F)c2)cc1-c1cc(-c2ccnc(NC(=O)C3CC3)c2)cnn1 [Example 310] | 1 to 10 | ≤ 0.1 | 1 to 10 | –
COC(=O)Nc1cc(-c2cnnc(-c3cc(NC(=O)c4cccc(C(C)(C)C#N)c4)ccc3C)c2)ccn1 [Example 311] | 1 to 10 | ≤ 0.1 | – | –
COC(=O)Nc1cc(-c2cc(-c3cc(NC(=O)c4ccnc(C(F)F)c4)cnc3C)ccn2)ccn1 [Example 313] | 1 to 10 | ≤ 0.1 | – | 1 to 10
CNC(=O)c1cc(-c2cnnc(-c3cc(NC(=O)c4ccnc(C(C)(C)C#N)c4)ccc3C)c2)ccn1 [Example 314] | 1 to 10 | 0.1 to 0.5 | – | 0.5 to 1
Cc1ccc(NC(=O)c2ccnc(C(C)(C)F)c2)cc1-c1cc(-c2ccnc(NC(=O)C3CC3)c2)cnn1 [Example 315] | 0.5 to 1 | ≤ 0.1 | – | ≤ 0.1
CNC(=O)c1cc(-c2cnnc(-c3cc(NC(=O)c4ccnc(C(C)(C)C#N)c4)cnc3C)c2)ccn1 [Example 316] | 1 to 10 | 0.5 to 1 | – | –
CNC(=O)c1cc(-c2cnnc(-c3cc(NC(=O)c4ccnc(C5CC5)c4)cnc3C)c2)ccn1 [Example 317] | 1 to 10 | 0.5 to 1 | – | –
CNC(=O)c1cc(-c2cnnc(-c3cc(NC(=O)c4ccnc(C(F)(F)F)c4)cnc3C)c2)ccn1 [Example 318] | 1 to 10 | 0.5 to 1 | – | –
COC(C)(C)c1cc(C(=O)Nc2ccc(C)c(-c3cc(-c4ccnc(NC(=O)C5CC5)c4)cnn3)c2)ccn1 [Example 319] | 1 to 10 | ≤ 0.1 | – | –
Cc1ccc(NC(=O)c2cn(C(C)C)nn2)cc1-c1cc(-c2ccnc(NC(=O)C3CC3)c2)cnn1 [Example 320] | 1 to 10 | ≤ 0.1 | – | 1 to 10
Cc1ccc(NC(=O)c2cnn(C(C)(C)C)c2)cc1-c1cc(-c2ccnc(NC(=O)C3CC3)c2)cnn1 [Example 321] | 1 to 10 | ≤ 0.1 | – | 0.1 to 0.5

SMILES | IC50 [1] [µM] | IC50 [2] [µM] | IC50 [3] [µM] | IC50 [4] [µM]
CNC(=O)c1cc(-c2cnnc(-c3cc(NC(=O)c4ccc(Cl)c(OC)c4)cnc3C)c2)ccn1 [Example 322] | 1 to 10 | 1 to 10 | – | –
COC(=O)Nc1cc(-c2cc(-c3cc(NC(=O)c4ccnc(C(C)(C)F)c4)cnc3C)ccn2)ccn1 [Example 323] | 1 to 10 | ≤ 0.1 | – | 0.1 to 0.5
CNC(=O)c1cc(-c2cnnc(-c3cc(NC(=O)c4ccnc(C(C)(C)F)c4)ccc3C)c2)ccn1 [Example 325] | 1 to 10 | 0.1 to 0.5 | – | 0.5 to 1
CNC(=O)c1cc(-c2cnnc(-c3cc(NC(=O)c4ccnc(C5CC5)c4)ccc3C)c2)ccn1 [Example 326] | 1 to 10 | 0.1 to 0.5 | – | 1 to 10
CNC(=O)c1cc(-c2cnnc(-c3cc(NC(=O)c4ccnc(C(F)F)c4)ccc3C)c2)ccn1 [Example 327] | 1 to 10 | 0.1 to 0.5 | – | 1 to 10
CNC(=O)c1cc(-c2cnnc(-c3cc(NC(=O)c4ccnc(C(C)(C)OC)c4)ccc3C)c2)ccn1 [Example 328] | 1 to 10 | 0.5 to 1 | – | 1 to 10
CNC(=O)c1cc(-c2cnnc(-c3cc(NC(=O)c4ccnc(C(F)F)c4)cnc3C)c2)ccn1 [Example 330] | 1 to 10 | 0.5 to 1 | – | –
CNC(=O)c1cc(-c2cnnc(-c3cc(NC(=O)CCC(C)(C)C#N)cnc3C)c2)ccn1 [Example 333] | 1 to 10 | 1 to 10 | – | –
Cc1ccc(NC(=O)C2CN(C)CCO2)cc1-c1cccc(-c2cc(NC(=O)C3CC3)ncn2)c1 (centres unmarked) [Example 346] | 1 to 10 | ≤ 0.1 | – | –
CO[C@H]1CC[C@H](C(=O)Nc2cnc(C)c(-c3cccc(-c4cc(NC(=O)C5CC5)ncn4)c3)c2)CC1 [Example 347] | 1 to 10 | 0.5 to 1 | – | –
CNC(=O)c1cc(-c2cc(-c3cc(NC(=O)CCC(C)(C)C#N)ccc3C)ccn2)ccn1 [Example 357] | 1 to 10 | 0.1 to 0.5 | – | –
COC(=O)Nc1cc(-c2cnnc(-c3cc(NC(=O)CN4CCCC4)cnc3C)c2)ccn1 [Example 359] | 1 to 10 | 1 to 10 | – | –
COC(=O)Nc1cc(-c2cnnc(-c3cc(NC(=O)c4ccnc(C(C)(C)F)c4)cnc3C)c2)ccn1 [Example 361] | 1 to 10 | 0.1 to 0.5 | – | –
COC(=O)Nc1cc(-c2cnnc(-c3cc(NC(=O)c4ccnc(C5CC5)c4)cnc3C)c2)ccn1 [Example 362] | 1 to 10 | 0.1 to 0.5 | – | –
COC(=O)Nc1cc(-c2cnnc(-c3cc(NC(=O)c4ccnc(C(F)F)c4)cnc3C)c2)ccn1 [Example 363] | 1 to 10 | 0.5 to 1 | – | –
COCCNC(=O)c1cc(-c2cnnc(-c3cc(NC(=O)c4cccc(C5CC5)c4)ccc3C)c2)ccn1 [Example 365] | 1 to 10 | 0.1 to 0.5 | – | –
CNC(=O)c1cc(-c2cnnc(-c3cc(NC(=O)c4cn(C(C)(C)C)nn4)ccc3C)c2)ccn1 [Example 366] | 1 to 10 | 0.1 to 0.5 | – | –
Cc1ccc(NC(=O)c2cc(C(C)(C)C)no2)cc1-c1cc(-c2ccnc(NC(=O)C3CC3)c2)cnn1 [Example 367] | 1 to 10 | ≤ 0.1 | – | –
COC(=O)Nc1cc(-c2cnnc(-c3cc(NC(=O)CC4CCCC4)cnc3C)c2)ccn1 [Example 368] | 1 to 10 | 1 to 10 | – | –
Cc1ccc(NC(=O)c2ccnc(C(C)(C)C#N)c2)cc1-c1cc(-c2ccnc3[nH]ccc23)cnn1 [Example 369] | 1 to 10 | ≤ 0.1 | – | –
Cc1ccc(NC(=O)c2ccnc(C(C)(C)C#N)c2)cc1-c1cc(-c2ccnc(C(=O)NC3CC3)c2)cnn1 [Example 372] | 1 to 10 | 1 to 10 | – | –
